Results on 17 molecules are retold here after patent US12558329B2 (New York University, priority 2021, dated 2026).

Entries after “also recorded” stand apart in the source; their conditions may differ. Peptide text beside a SMILES is read from it. * marks the point of attachment. Cbz = O=C(OCc1ccccc1)*

Test [1] concerns MIAPACA2 cells. Nature of the test: 18O2-GASSP labelling of MIAPACA2 cells treated with MG132, IOX1, DFO or ascorbate. Format: cell-based, human. As for the experimental part:
As additional controls, MIAPACA2 cells were treated with an iron chelator (DFO, FIG. 5E-5F), a proteasome inhibitor (MG132) to induce proteotoxic stress, and physiological levels of ascorbate, an antioxidant, to determine the effects of ROS on ^18O-labelling. Labelling of ^18O γ-butyrobetaine was blocked by IOX1 and DFO, consistent with the fact that trimethyllysine hydroxylase (TMLH) is an iron-dependent dioxygenase (FIGS. 7A-7D). […] Total levels of ^18O labelled methionine sulfoxide increased upon MG132 treatment and decreased following ascorbate treatment (FIGS. 7I-7M)^10.
(§1) All steps involved in setting up labelling with ^18O2 were performed at room temperature and inside a chemical fume hood. The procedure may vary depending on the type and number of tissue culture plates in the chamber and the amount of media in the plates. Users must test the system by using ^16O2:CO2:N2 or other unlabelled gases to optimize conditions for their needs and avoid consumption of costly labelled gases. Cells were treated with or without 5 μM MG132, 500 μM IOX1, 250 μM DFO, or 70 μM ascorbate, before placing tissue culture plates into the modular incubator chamber (MIC) containing a wireless oxygen sensor and a 15 cm dish of water to maintain humidity. Next, the clamps were closed to form an air-tight seal between the lid and platform of the MIC. […] N2 flushing was repeated for a total of three times, or until the sensor in the chamber stabilized at 0% O2 for 10 minutes.
Next, the inlet valve was opened and the ^18O2:5% CO2:N2 gaseous mixture was flushed into the system at a rate of 2.5 L/min. Subsequently, the outlet valve was immediately opened to allow gas flow out of the chamber, and to release the pressure in the system. The chamber was injected with the ^18O2:5% CO2:N2 gaseous mixture for 1 minute before the inlet and outlet valves were closed simultaneously. The chamber was allowed to equilibrate for 5 minutes. This process was repeated seven times, or until the desired oxygen concentration was reached and was stable. For 3%, 1%, and 0.2% ^18O2 labelling studies, the chamber was infused with 5%:5%:90%, 1.5%:5%:93.5%, and 0.5%:5%:94.5% ^18O2:CO2:N2, respectively. The ^18O2-infused MIC was then placed in a 37° C., 5% CO2 tissue culture incubator for 24 hours. The oxygen concentration in the chamber was monitored regularly. Oxygen measurements after 20 hours was not feasible due to the battery life of the sensor. At the end of the experiment, the chamber was opened inside a chemical fume hood before metabolite extraction.
(§2) For metabolomics, briefly, cells were washed in 4° C. 0.9% saline and metabolites were extracted with 46% methanol:23% H2O:[…] chloroform that contained a labelled amino acid standard mix (MSK-A2-1.2, Cambridge Isotope Laboratories, Inc.). Enzymatic assay samples were extracted using 80% methanol: 20% H2O that contained labelled amino acid standards. Extracts were placed into 1.5 mL Eppendorf tubes, vortexed at 4° C. for 10 min and centrifuged at 4° C. for 10 min at 17,200×g in a microcentrifuge. The aqueous phase was transferred to vials for GC-MS or Eppendorf tubes for LC-MS. Polar samples were evaporated in a SpeedVac and samples were resolved by GC-MS or LC-MS. Lipid samples were dried using a stream of N2 (for ^18O labelling studies) or air. Metabolite and lipid extracts were submitted to the NYULMC Metabolomics Core Resource Laboratory.
For polar metabolomics, the LC column was a Millipore ZIC-pHILIC (2.1×150 […], 5 μm bead size) coupled to a Dionex UltiMate 3000 system. The column oven temperature was held at 25° C. The flow rate was 100 μL/min, and the injection volume was 1 μL. Buffer A was 10 mM ammonium carbonate in water, pH 9, and Buffer B was neat acetonitrile. The gradient profile was 80-20% B (0-30 min), 20-80% B (30-31 min), and 80-80% B (31-42 min). MS Analyses were carried out on a Thermo Q Exactive HF mass spectrometer using a heated electrospray ionization (HESI) source. […]

Test [2] deals with human cells. The experiment in a line: 18O2-GASSP labelling of human cells, untargeted polar metabolomics, with or without IOX1. Format: cell-based. The note with it: 18O labelling of the metabolite in cells treated with IOX1 (dioxygenase inhibitor), 24 hours. Here is the method: To map the molecular fate of O2 in metabolic pathways in living cells, GASSP was used to carry out ^18O2 labelling in cell lines of different tissue origins at ^18O2 concentrations that represented physiological (3%), hypoxic (1%), and severely hypoxic (0.2%) oxygen tensions found in tissues and tumours^7. At the end of each run, polar metabolites were extracted and untargeted polar metabolomics using liquid chromatography-high resolution mass spectrometry (LC-MS) were carried out to identify metabolites labeled with ^18O.
A list of unique features identified by untargeted metabolomics that were >0.25% (natural abundance of ^18O is 0.2%) labelled by ^18O atoms in each cell line at each oxygen tension was generated. In addition, background signal was controlled by requiring that ^18O labeled peaks had to have a signal that was two-fold greater than naturally occurring isotopes found in non-labelled (^16O) metabolite cell extracts. To determine the proportion of unique ^18O labelled features that were due to dioxygenase activity, cells were treated with a pan-dioxygenase inhibitor (IOX1) at concentrations that inhibit iron-dependent dioxygenases, such as the HIF1α prolyl hydroxylases (FIGS. 5E-5F) and identified ^18O labelled polar metabolites. This list of ^18O metabolites was generated by identifying all features in the unlabelled samples, filtering these features against blank samples to remove background peaks, and calculating the fractional ^18O labelling with the assumption that a metabolite would have no more than three oxygen atoms labelled, followed by manual curation of labelled features (FIG. 1B and FIG. 5G). […] These ^18O-labelled features were termed the oxy-metabolome.
To determine the identities of the labeled metabolites, the list of ^18O labelled features was annotated to their corresponding unlabelled metabolites using retention time matching, tandem mass spectrometry (MS2) fragmentation patterns, and database searching.
as §1

Test [3] relates to MIAPACA2 cells. The experiment in a line: 13C9-Tyr tracing in MIAPACA2 cells with the indicated reagents. Type of test: cell-based, human.
From the text: 4-HMA biosynthesis has only been described in some bacteria and in rabbits. […] The production of 4-HPPA occurs in the first step of tyrosine (Tyr) catabolism via tyrosine transaminase (TAT). In rabbits, 4-HMA was proposed to be synthesized from the degradation of tyramine and octopamine by dopamine β-hydroxylase (Dbh) and monoamine oxidase (Mao) (FIG. 9A)^13. Tyramine is also a Tyr-derived metabolite. Therefore, all known substrates required to generate 4-HMA are derived from Tyr. In addition, Tyr can also be made from phenylalanine (Phe) by Phe hydroxylase (PAH) in mammalian liver cells^14. To elucidate the human 4-HMA biosynthetic pathway, the fates of ^13C9-Tyr and ^13C6-Phe were traced in human cells. […] Additionally, the generation of 4-HMA by […] would result in the incorporation of a single ^18O at the Ca position of the carboxylic acid of 4-HMA (FIG. 9A). However, this was not observed by ^18O labelling (FIG. 8B). Therefore, it was unlikely that 4-HMA biosynthesis from octopamine and tyramine catabolism occurred in the present system.
Unexpectedly, 4-HMA levels also were lower in hyperoxic (21%) conditions compared to 3% O2, reflecting either decreased production or increased consumption of this metabolite at 21% O2.
Therefore, CoQ10 was used as an indirect readout of 4-HB production. To assess the ability of human cells to biosynthesize CoQ10, cells were labelled with ^13C6-Phe or ^13C9-Tyr. CoQ10 was completely biosynthesized from Tyr, but not Phe, in human cells (FIG. 11B).
as §2
For polar metabolomics, the LC column was a Millipore ZIC-pHILIC (2.1×150 […], 5 μm bead size) coupled to a Dionex UltiMate 3000 system. The column oven temperature was held at 25° C. The flow rate was 100 μL/min, and the injection volume was 1 μL. Buffer A was 10 mM ammonium carbonate in water, pH 9, and Buffer B was neat acetonitrile. The gradient profile was 80-20% B (0-30 min), 20-80% B (30-31 min), and 80-80% B (31-42 min). MS Analyses were carried out on a Thermo Q Exactive HF mass spectrometer using a heated electrospray ionization (HESI) source. The method duration was 30 min using a polarity-switching, top 5 method. The spray voltage for both positive and negative ion modes was 3.5 kV. The capillary temperature was 320° C. with a maximum spray current of 100 ρA. The full MS scan was carried out at 120,000 resolution with a scan range of 67-1000 m/z. For ^18O2 labelling experiments, full MS scans were carried out at 240,000 resolution at the same scan range. Tandem MS spectra were obtained at 15,000 resolution. All data were acquired in profile mode. Peak heights were analyzed using Xcalibur (ThermoFisher Scientific).
Lipid metabolomics were acquired using a Waters CSH-C18 (2.1×100 mm, 1.7 μm) column coupled to a Dionex UltiMate 3000 system. The column oven temperature was held at 55° C. The flow rate was 300 μL/min and the injection volume was 1 μL. Buffer A was 60:40 acetonitrile:water, 0.1% formic acid and Buffer B was 90:10 isopropanol:acetonitrile, 10 mM ammonium formate. […]

As to `CC(C)C[C@@H](C=O)NC(=O)[C@H](CC(C)C)NC(=O)[C@H](CC(C)C)NC(=O)OCc1ccccc1` [MG132] (Cbz-Leu-Leu-Leu-aldehyde), the “Total levels of 18O labelled methionine sulfoxide” value in test [1] (5 μM MG132, 70 μM ascorbate, 24 hours) was “increased”.
Take `N[C@@H](CCC(=O)O)C(=O)O` [Metabolite 33, Glutamate]: the “IOX1 Sensitive (Yes/No)” value in test [2] is listed as “Yes”.
Still for that read-out and setting: the result for `N[C@@H](CCSC[C@H](N)C(=O)O)C(=O)O` [Metabolite 42, Cystathionine] reads “Yes”; that for `CCCCC(=O)O[C@H](CC(=O)[O-])C[N+](C)(C)C` [Metabolite 4, Valerylcarnitine], “Yes”; that for `O=C[C@@H](O)[C@@H](O)[C@H](O)[C@H](O)COP(=O)(O)O` [Metabolite 46, D-Mannose 6-phosphate], “Yes”.
Same read-out and setting: the result for `C[N+](C)(C)CCCC(=O)[O-]` [Metabolite 21, g-Butyrobetaine] reads “Yes”.
In the case of `CC(=O)N[C@@H](CO)[C@@H](O)[C@@H](O)[C@H](O)CO` [Metabolite 17, N-Acetyl-D-galactosaminitol], the “IOX1 Sensitive (Yes/No)” value in test [2] is “Yes”.
Same read-out and setting: next, `C[S+]([O-])CC[C@H](N)C(=O)O` (some centres unmarked) [Metabolite 23, Methionine Sulfoxide]: “Yes”; `NCCS(=O)O` [Metabolite 32, Hypotaurine]: “Yes”; `CC(=O)N[C@H]1C(O)O[C@H](CO)[C@@H](O)[C@@H]1O` (stereo partly drawn) [Metabolite 16, N-Acetyl-D-glucosamine]: “No”.
On the same count and under the same terms, the result for `C[S+](CC[C@H](N)C(=O)[O-])C[C@H]1O[C@@H](n2cnc3c(N)ncnc32)[C@H](O)[C@@H]1O` (some centres unmarked) [Metabolite 41, S-adenosyl methionine] reads “Yes”; that for `NC(=O)C1=CN([C@@H]2O[C@H](COP(=O)(O)OP(=O)(O)OC[C@H]3O[C@@H](n4cnc5c(N)ncnc54)[C@H](O)[C@@H]3O)[C@@H](O)[C@H]2O)C=CC1` [Metabolite 28, NADH], “Yes”; that for `O=C(O)[C@@H]1C[C@@H](O)CN1` [Metabolite 24, Hydroxyproline], “Yes”.
As for `O=c1ccn([C@@H]2O[C@H](COP(=O)(O)O)[C@@H](O)[C@H]2O)c(=O)[nH]1` [Metabolite 36, UMP], the “IOX1 Sensitive (Yes/No)” value in test [2] is reported as “Yes”.
As to `CC(=O)N(O)CCCCCNC(=O)CCC(=O)N(O)CCCCCNC(=O)CCC(=O)N(O)CCCCCN` [DFO, N-[5-[[4-[5-[acetyl(hydroxy)amino]pentylamino]-4-oxobutanoyl]-hydroxyamino]pentyl]-N′-(5-aminopentyl)-N′-hydroxybutanediamide], in test [1] (3%, 1%, 0.2% 18O2, 24 hours), the “18O labelling of methionine” value is recorded as “less sensitive; also recorded: only partially blocked” and the “18O labelling of γ-butyrobetaine” value is listed as “sensitive; also recorded: blocked”. Besides, in test [1] (MIAPACA2, 3%, 1%, 0.2% 18O2, 24 hours, 500 μM IOX1, 250 μM DFO), the “18O labelling of 4-HMA” value is given as “sensitive; also recorded: significantly attenuated”. Further, in test [1] (MIAPACA2, 18O2 labelling, 24 hours, 500 μM IOX1, 250 μM DFO, 70 μM ascorbate), the 4-HMA levels entry is recorded as “significantly attenuated”. Also, in test [3] (3% 16O2, 24 hours), the “13C9-Tyr-derived 4-HMA” value was “attenuated or ablated; also recorded: severely inhibited” and the “CoQ10 labelling from 13C9-Tyr (incorporation of tyrosine into CoQ10)” value is “eliminated; also recorded: completely blocked”. In test [3] (13C-Tyr, 3% O2, 24 hours), the 4-HPLA pools entry was “increased”.
Turning to `CSCC[C@H](N)C(=O)O` [Metabolite 13, Methionine], the “IOX1 Sensitive (Yes/No)” value in test [2] was “Yes”.
Turning to `CN(CC(=O)O)C(=N)N` [Metabolite 29, Creatine], the “IOX1 Sensitive (Yes/No)” value in test [2] is reported as “Yes”.
